Several values for one entry are separate records, joined by “and”; a condition that tells them apart may be missing. Identical values can stand only once. Like-named read-outs stand apart in the source and are kept apart here.
Columns and labels:
[1] = Lipophilicity: octanol-water partition coefficient, shake-flask method
Method: The octanol-water partition coefficients (P) of all the complexes were determined using a shake-flask method^8. Water (100 mL, distilled after milli-Q purification) and n-octanol (100 mL, Sigma Aldrich, ACS spectrophotometric grade, ≥99%) were shaken together for 24 h to allow saturation of both phases. Stock solutions of the compounds ([…]) were prepared in the aqueous phase. Aliquots (2 mL) of each of these stock solutions were then added to an equal volume of the n-octanol phase. The resultant biphasic solution was mixed for 15 min and then centrifuged (3000 tr/min, 5 min) to separate the phases. The concentrations of the complex in the organic and aqueous phases were then determined using UV absorbance spectroscopy (260 nm). The blank is the water saturated with n-octanol. Log P was defined as logarithm of the ratio of the concentrations of the complex in the organic and aqueous phases (values reported are the means of at least three separated determinations).
The Log P values have been determined by a classical shake-flask method.

[2] = UV/Vis absorption spectra; assay type: physicochemical; details: room temperature; for λmax (nm) ε (M^−1 · cm^−1): air-saturated CH2Cl2 or CH2Cl2/MeOH (1:1), 50 μM, ε in brackets, sh = shoulder; for maximum absorption, lowest-lying bands in the visible region over 360 nm: CH2Cl2 or CH2Cl2/MeOH (1:1)
Method: UV/Vis absorption spectra were recorded at RT on solutions contained in quartz cuvettes (optical pathlength 1 cm, Hellma®) with a PerkinElmer® UV/VIS/NIR spectrophotometer Lambda 950 and a PerkinElmer® detector UV/VIS/NIR Accessory 2D Detector Module.

[3] = Luminescence emission spectra and quantum yield; assay type: physicochemical; details: for ΦP emission phosphorescence quantum yield: room temperature, reference POPOP in hexane or rhodamine B in ethanol; for λem: CH2Cl2, room temperature, λexc 365 nm or 470 nm
Method: Fluorescence and phosphorescence emission spectra were obtained with a HORIBA JOBIN YVON, fluromax-4 and spectrofluorometer.
Luminescence quantum yields were measured according to the method of Demas and Crosby, on solution samples at RT. The quantum yield is defined as: […]
Where ΦP is the quantum yield of the sample, ΦR is the know quantum yield of the reference standard. […].
The luminescence spectra of vectorized iridium(III) complexes were determined in CH2Cl2 at room temperature (Table 3).

[4] = Emission lifetime measurement; assay type: physicochemical
Method: Fluorescence lifetime measurements were performed by an Edinburgh FLS920 spectrofluorimeter equipped with a TCC900 card for data acquisition in time-correlated single-photon counting experiments (0.5 ns time resolution) with a D2 lamp and an LDH—P-C-405 pulsed diode laser. The estimated experimental error is 2 nm on the band maximum (5% on the lifetime, 10% on the fluorescence quantum yield).
The emission lifetimes of biotin-vectorized complexes (I-a) to (I-l) range from 138 ns to 411 ns, among them, the lifetime of biotin-vectorized complexes (I-c), (I-e), (I-k) are 411, 224, and 322 ns respectively. The emission lifetimes of FTS-vectorized complexes (II-a) to (II-l) range from 167 ns to 486 ns, among them, the lifetime of FTS-vectorized complexes (II-c) and (II-k) are 319 and 486 ns respectively. The emission lifetimes of PSMA-vectorized complexes (III-a) to (III-l) are in the range of 159-649 ns, among them, the lifetime of complexes (III-a) and (III-k) were 248 and 649 ns, respectively. The emission lifetimes of Fc-vectorized complexes (IV-a) to (IV-l) are in the range of 178-228 ns.

[5] = system: NIH-3T3 fibroblast cells (non-tumor); assay: Cell viability assay (MTT), dark and blue light; assay type: cell-based, Murine; details: for Photosensitizing index (PI): NIH-3T3, dark vs blue light
Method: (§1) Cells were grown in humidified incubators at 37° C. in 5% CO2. Murine MC3T3 osteoblast and NIH-3T3 fibroblast cells-used as non-tumor cell models-were cultured in a-MEM medium and DMEM medium supplemented with 10% fetal bovine serum (FBS) and 1% Penicillin/Streptomycin (P/S) antibiotics, respectively. Human T24 bladder, MGHU3 bladder, Scaber bladder, A549 lung, MCF7 breast, MiaPaCa2 pancreas cancer cells were cultured in DMEM medium supplemented with 10% FBS and 1% P/S antibiotics. […] Human Hela cervix and HepG2 liver cancer cells were cultured EMEM medium supplemented with 10% FBS and 1% P/S antibiotics.
(§2) MTT reagent (3-(4,5-dimethylthiazol-2-yl)-2,5-diphenyltetrazolium bromide) was used to determine cell death as originally described by Mosmann. Briefly, cells were seeded from 5,000 to 10,000 cells/well in 24-well plates (1 mL) depending on the cell type and allowed to attach overnight. The complexes were prepared in DMSO. The concentration of the complexes was calculated based on the elemental composition of the complexes determined by the elemental analyses. All cell viability experiments were carried out with a fixed concentration of 0.1% (v/v) DMSO. After 72 h of treatment, cells were incubated at 37° C. and 5% CO2 with 25 μL of MTT solution (5 mg/ml; Sigma-Aldrich) in 24-well plates for 3 to 4 h. After solubilization with 500 μL of DMSO, formazan was quantified spectrophotometrically with a microplate reader at 570 nm absorbance (ClarioSTAR, BMG LabTech). […] All the results were calculated from data obtained in at least three independent experiments performed in triplicate.
(§3) Two sets of experiments were conducted in parallel for each complex to be studied:
(§4) 1. The cells were incubated with the different complexes (in the dark) for 72 h.
(§5) 2. The cells were incubated for 8 h with the different complexes (in the dark), then irradiated for 10 min, followed by an incubation in the dark up to 72 h.

T24 bladder cancer cells = assay: Cell viability assay (MTT), dark and blue light; assay type: cell-based, Human; details: for SI (vs NIH-3T3) T24 Blue: blue light 458 nm; for Photosensitizing index (PI) T24: dark vs blue light 458 nm
Method: as §1, §2, §3, §4, §5

[6] = system: MC3T3 osteoblast cells (non-tumor); assay: Cell viability assay (MTT), dark and blue light; assay type: cell-based, Murine; details: in the dark, 72 h; read-out: GI50 MC3T3 Dark
Method: as §1, §2, §3, §4, §5

[7] = system: PC-3 prostate cancer cells (PSMA-negative); assay: Cell viability assay (MTT), dark and blue light; assay type: cell-based, Human; details: for GI50: read-out: GI50; for Photosensitizing index (PI): PC3, dark vs blue light
Method: Cells were grown in humidified incubators at 37° C. in 5% CO2. Murine MC3T3 osteoblast and NIH-3T3 fibroblast cells-used as non-tumor cell models-were cultured in a-MEM medium and DMEM medium supplemented with 10% fetal bovine serum (FBS) and 1% Penicillin/Streptomycin (P/S) antibiotics, respectively. Human T24 bladder, MGHU3 bladder, Scaber bladder, A549 lung, MCF7 breast, MiaPaCa2 pancreas cancer cells were cultured in DMEM medium supplemented with 10% FBS and 1% P/S antibiotics. Human ASPC-1 pancreas, PC-3 prostate, DU-145 prostate, C4-2B prostate and 22rV1 prostate cancer cells were cultured in RPMI medium supplemented with 10% FBS and 1% P/S antibiotics. Human Hela cervix and HepG2 liver cancer cells were cultured EMEM medium supplemented with 10% FBS and 1% P/S antibiotics.
as §2
Irradiation was conducted using an in-house device, a series of blue light LEDs selected according to the absorption spectra of the compounds at 458 nm wavelength with an emitted power of 9.6 Watts. The light fluence was measured at 458 nm with an optical power meter Thorlabs PM100A at different distances between the cell layer and the light source (5 and 10 cm).
as §3, §4, §5

[8] = n-octanol/water, shake-flask, mean of at least three determinations
[9] = 8 h in the dark, blue light 458 nm 10 min, then dark up to 72 h, read-out: GI50 NIH-3T3 Blue
[10] = in the dark, 72 h, read-out: GI50 NIH-3T3 Dark
[11] = 8 h in the dark, blue light 458 nm 10 min, then dark up to 72 h, read-out: GI50 T24 Blue
[12] = in the dark, 72 h, read-out: GI50 T24 Dark
[13] = NIH-3T3, blue light, read-out: GI50

Compound	Log P [1, 8]	λmax (nm) ε (M^−1 · cm^−1) [2]	ΦP emission phosphorescence quantum yield [3]	τ1 emission lifetime [4]	GI50 [5, 9]	GI50 [5, 10]	GI50 (T24 bladder cancer cells; [11])	SI (vs NIH-3T3) T24 Dark (T24 bladder cancer cells)	Photosensitizing index (PI) T24 (T24 bladder cancer cells)	GI50 (T24 bladder cancer cells; [12])	Log P [1]	maximum absorption, lowest-lying bands in the visible region over 360 nm [2]	GI50 [5, 13]	Photosensitizing index (PI) [5]	Photosensitizing index (PI) [7]	also measured
COC(=O)c1ccc2[c](c1)[Ir-3]13([c]4cc(C(=O)OC)ccc4-c4cccc[n+]41)([c]1n(CCCNC(=O)CCCC[C@@H]4SC[C@@H]5NC(=O)N[C@@H]54)cc[n+]1-c1cccc[n+]13)[n+]1ccccc1-2.F[P-](F)(F)(F)(F)F [I-c]	−0.78 ± 0.01	310 (sh) (16860), 358 (4090), 400 (3295) nm (M^−1 · cm^−1)	5.9%	411 ns	> 100 µM	> 100 µM	24.9 µM and 24.5 µM	>3.7	1.1	26.7 µM and 26.9 µM	–	–	–	–	–	SI (vs NIH-3T3) T24 Blue (T24 bladder cancer cells): >4.1
F[P-](F)(F)(F)(F)F.O=C(CCCC[C@@H]1SC[C@@H]2NC(=O)N[C@@H]21)NCCCn1cc[n+]2[c]1[Ir-3]13([c]4cccc5ccc6ccc[n+]1c6c45)([c]1cccc4ccc5ccc[n+]3c5c14)[n+]1ccccc1-2 [I-i]	–	320 (13840), 410 (3920) nm (M^−1 · cm^−1)	<0.1%	210 ns	> 100 µM	> 100 µM	35.4 µM	–	1.4	–	0.60 ± 0.06	–	–	–	–	λem [3]: 522-567 nm; GI50 [6]: 50.2 µM; Photosensitizing index (PI) NIH-3T3 ([5]; dark vs blue light 458 nm): >1
COC(=O)c1cccc2[c]1[Ir-3]13([c]4c(C(=O)OC)cccc4-c4cccc[n+]41)([c]1n(CCCNC(=O)CCCC[C@@H]4SC[C@@H]5NC(=O)N[C@@H]54)cc[n+]1-c1cccc[n+]13)[n+]1ccccc1-2.F[P-](F)(F)(F)(F)F [I-d]	−0.10 ± 0.01	373 (4260) nm (M^−1 · cm^−1)	0.7%	184 ns	> 100 µM	> 100 µM	28.9 µM and 26.9 µM	>3.8	1.0	26.3 µM	–	around 370 nm	–	–	–	SI (vs NIH-3T3) T24 Blue (T24 bladder cancer cells): >3.7
Cc1ccc2[c](c1)[Ir-3]13([c]4cc(C)ccc4-c4cccc[n+]41)([c]1n(CCCNC(=O)CCCC[C@@H]4SC[C@@H]5NC(=O)N[C@@H]54)cc[n+]1-c1cccc[n+]13)[n+]1ccccc1-2.F[P-](F)(F)(F)(F)F [I-b]	0.43 ± 0.01	314 (sh) (18240), 382 (6150) nm (M^−1 · cm^−1)	0.5%	177 ns	> 100 µM	> 100 µM	8.3 µM	>7.3	–	13.7 µM	–	around 380 nm	–	–	–	Photosensitizing index (PI) T24 (T24 bladder cancer cells; listed as l-b): 1.7
COC(=O)c1ccc2[n+](c1)[Ir-3]13([c]4ccccc4-2)([c]2ccccc2-c2ccc(C(=O)OC)c[n+]21)[c]1n(CCCNC(=O)[c-]2cccc2)cc[n+]1-c1cccc[n+]13.F[P-](F)(F)(F)(F)F.[Fe+2].c1cc[cH-]c1 [IV-e]	–	312 (sh) (27925), 363 (sh) (7290), 434 (6530) nm (M^−1 · cm^−1)	0.17%	200 ns	–	–	–	–	–	–	1.37 ± 0.05	–	4.2 µM	7.7	18.3	λem [3]: 528 nm; GI50 ([5]; NIH-3T3, dark, read-out: GI50): 32.3 µM; GI50 ([7]; PC3, blue light): 0.54 µM; GI50 ([7]; PC3, dark): 9.9 µM
F[P-](F)(F)(F)(F)F.O=C(NCCCn1cc[n+]2[c]1[Ir-3]13([c]4ccccc4-c4cccc[n+]41)([c]1ccccc1-c1cccc[n+]13)[n+]1ccccc1-2)[c-]1cccc1.[Fe+2].c1cc[cH-]c1 [IV-a]	0.61 ± 0.07	304 (sh) (25840), 381 (8080) nm (M^−1 · cm^−1)	0.04%	197 ns	–	–	–	–	–	–	–	around 380 nm	6.7 µM	4.2	1.2	GI50 ([5]; NIH-3T3, dark, read-out: GI50): 28.2 µM; SI (vs NIH-3T3) ([7]; PC3, blue light): 2.8; GI50 ([7]; PC3, blue light): 2.4 µM; SI (vs NIH-3T3) ([7]; PC3, dark): 9.9
COC(=O)c1ccc2[c](c1)[Ir-3]13([c]4cc(C(=O)OC)ccc4-c4cccc[n+]41)([c]1n(CCCNC(=O)[c-]4cccc4)cc[n+]1-c1cccc[n+]13)[n+]1ccccc1-2.F[P-](F)(F)(F)(F)F.[Fe+2].c1cc[cH-]c1 [IV-c]	–	304 (sh) (28570), 353 (sh) (7050), 399 (5315), 427 (sh) (3660) nm (M^−1 · cm^−1)	0.04%	195 ns	–	–	–	–	–	–	0.72 ± 0.03	–	9.3 µM	3.5	16.8	SI (vs NIH-3T3) ([7]; PC3, blue light): 10.7; SI (vs NIH-3T3) ([7]; PC3, dark): 2.2

Reference: patent publication US20260209260A1, “VECTORIZED NHC IRIDIUM(III) COMPLEXES AND USE THEREOF IN PHOTODYNAMIC THERAPY AND/OR DIAGNOSTIC” (CENTRE NATIONAL DE LA RECHERCHE SCIENTIFIQUE, priority 2022, published 2026)
